From US20240109930A1, “TRIAZOLYL-METHYL SUBSTITUTED ALPHA-D-GALACTOPYRANOSIDE DERIVATIVES” (Idorsia Pharmaceuticals Ltd, priority 2021, published 2024)

Key:
[1] = molecular target: human Gal-1 (hGal-1) (Homo sapiens, UniProt P09382, C131S/C17S/C43S/C61S/C89S); experiment: Competitive binding assay: biotinylated hGal-1 binding to microplate-adsorbed asialofetuin (ASF); details: IC50 values from several measurements given as geomean
Experimental: (§1) The inhibitory activity of compounds is determined in competitive binding assays. This spectrophotometric assay measures the binding of biotinylated human Gal-3 (hGal-3) or human Gal-1 (hGal-1), respectively, to a microplate-adsorbed glycoprotein, asialofetuin (ASF) (Proc Natl Acad Sci USA. 2013 Mar. 26; 110(13):5052-7.). Alternatively, and preferably, a human Gal-1 version in which all six cysteines are substituted by serines may be used.
(§2) Briefly, compounds are serially diluted in DMSO (working dilutions). ASF-coated 384well plates are supplemented with 22.8 μL/well of biotinylated hGal-3 or hGal-1 in assay buffer (i.e. 300-1000 ng/mL biotinylated hGal-3 or hGal-1) to which 1.2 μL of compound working dilutions are added and mixed.
(§3) Plates are incubated for 3 hours at 4° C., then washed with cold assay buffer (3×50 uL), incubated for 1 hour with 25 μL/well of a streptavidin-peroxidase solution (diluted in assay buffer to 80 ng/mL) at 4° C., followed by further washing steps with assay buffer (3×50 uL). Finally, 25 μL/well of ABTS substrate is added.
(§4) The calculated IC50 values may fluctuate depending on the daily assay performance. Fluctuations of this kind are known to those skilled in the art. IC50 values from several measurements are given as geomean values.

[2] = molecular target: human Gal-3 (hGal-3) (Homo sapiens (Human), UniProt P17931); experiment: Competitive binding assay: biotinylated hGal-3 binding to microplate-adsorbed asialofetuin (ASF); details: IC50 values from several measurements given as geomean
Chain of human Gal-3 (hGal-3) (P17931 whole entry): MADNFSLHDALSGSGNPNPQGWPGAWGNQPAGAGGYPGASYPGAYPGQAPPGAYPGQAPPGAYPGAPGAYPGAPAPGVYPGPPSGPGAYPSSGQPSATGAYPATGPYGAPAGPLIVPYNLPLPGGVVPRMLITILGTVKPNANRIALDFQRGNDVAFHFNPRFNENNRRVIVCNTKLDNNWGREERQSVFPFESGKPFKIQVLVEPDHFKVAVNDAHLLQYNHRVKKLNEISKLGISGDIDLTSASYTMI
Experimental: as §1, §2, §3, §4

SMILES	IC50 [1] [nM]	IC50 [2] [nM]
CO[C@@H]1[C@@H](n2cc(-c3ccc(Cl)c(F)c3F)nn2)[C@@H](O)[C@@H](CO)O[C@@H]1Cc1cn([C@@H]2CCCC2(F)F)nn1 [Example 2.1.64.A, (2R,3R,4S,5R,6R)-4-(4-(4-chloro-2,3-difluorophenyl)-1H-1,2,3-triazol-1-yl)-6-((1-((R)-2,2-difluorocyclopentyl)-1H-1,2,3-triazol-4-yl)methyl)-2-(hydroxymethyl)-5-methoxytetrahydro-2H-pyran-3-ol]	940	30
CO[C@@H]1[C@@H](n2cc(-c3ccc(Br)c(F)c3F)nn2)[C@@H](O)[C@@H](CO)O[C@@H]1Cc1cn(C2(CF)COC2)nn1 [Ex 4.1.52., (2R,3R,4S,5R,6R)-4-(4-(4-bromo-2,3-difluorophenyl)-1H-1,2,3-triazol-1-yl)-6-((1-(3-(fluoromethyl)oxetan-3-yl)-1H-1,2,3-triazol-4-yl)methyl)-2-(hydroxymethyl)-5-methoxytetrahydro-2H-pyran-3-ol]	850	30
CO[C@@H]1[C@@H](n2cc(-c3ccc(Cl)c(F)c3F)nn2)[C@@H](O)[C@@H](CO)O[C@@H]1Cn1cc(C2(O)CCC2)nn1 [Ex 2.2.31.]	2630	90
CO[C@@H]1[C@@H](n2cc(-c3ccc(Cl)c(F)c3F)nn2)[C@@H](O)[C@@H](CO)O[C@@H]1Cc1cn(C2(C(F)(F)F)CC3CCC2C3)nn1 (some centres unmarked) [Ex 2.1.70.]	830	50
CO[C@@H]1[C@@H](n2cc(-c3ccc(Cl)c(F)c3F)nn2)[C@@H](O)[C@@H](CO)O[C@@H]1Cc1cn(C2COCC2(F)F)nn1 (mixture of isomers) [Example 2.1.90.A]	1130	30
CO[C@@H]1[C@@H](n2cc(-c3ccc(Cl)c(F)c3F)nn2)[C@@H](O)[C@@H](CO)O[C@@H]1Cc1cn(C2(C)COC2)nn1 [Ex 2.1.6.]	760	40
CO[C@@H]1[C@@H](n2cc(-c3ccc(Cl)c(F)c3F)nn2)[C@@H](O)[C@@H](CO)O[C@@H]1Cc1cn(C2(C(F)(F)F)CCOCC2)nn1 [Ex 2.1.72., (2R,3R,4S,5R,6R)-4-(4-(4-chloro-2,3-difluorophenyl)-1H-1,2,3-triazol-1-yl)-2-(hydroxymethyl)-5-methoxy-6-((1-(4-(trifluoromethyl)tetrahydro-2H-pyran-4-yl)-1H-1,2,3-triazol-4-yl)methyl)tetrahydro-2H-pyran-3-ol]	480	50
CO[C@@H]1[C@@H](n2cc(-c3ccc(Cl)c(F)c3F)nn2)[C@@H](O)[C@@H](CO)O[C@@H]1Cc1cn(C2(CO)CCCC2)nn1 [Ex 2.1.5.]	2250	60
CO[C@@H]1[C@@H](n2cc(-c3ccc(Cl)c(F)c3F)nn2)[C@@H](O)[C@@H](CO)O[C@@H]1Cc1cn(C2CCCCC2(F)F)nn1 (single isomer, unassigned) [Example 2.1.80.A]	1020	20
CO[C@@H]1[C@@H](n2cc(-c3ccc(Br)c(F)c3F)nn2)[C@@H](O)[C@@H](CO)O[C@@H]1Cc1cn([C@H]2CCCC2(F)F)nn1 [Example 4.1.64.B, (2R,3R,4S,5R,6R)-4-(4-(4-bromo-2,3-difluorophenyl)-1H-1,2,3-triazol-1-yl)-6-((1-((S)-2,2-difluorocyclopentyl)-1H-1,2,3-triazol-4-yl)methyl)-2-(hydroxymethyl)-5-methoxytetrahydro-2H-pyran-3-ol]	1810	50
CO[C@@H]1[C@@H](n2cc(-c3ccc(Cl)c(F)c3F)nn2)[C@@H](O)[C@@H](CO)O[C@@H]1Cc1cn(C2(C)CCC2)nn1 [Ex 2.1.13.]	690	20
CO[C@@H]1[C@@H](n2cc(-c3ccc(F)c(F)c3F)nn2)[C@@H](O)[C@@H](CO)O[C@@H]1Cc1cn(C2(C(F)F)COC2)nn1 [Ex 3.1.53.]	130	20

The remaining compounds from weak to strong by IC50 [1], led by results:

IC50 [1] [nM]	IC50 [2] [nM]	SMILES
13100	70	COC1=C(N2CC(c3ccc(Cl)c(F)c3F)NN2)C(O)=C(CO)O[C@@H]1Cn1cc(C23CCC(NC(=O)OC(C)(C)C)(CC2)CC3)nn1 (some centres unmarked) [Ex 2.2.37.]
5700	110	CO[C@@H]1[C@@H](n2cc(-c3ccc(C)c(F)c3F)nn2)[C@@H](O)[C@@H](CO)O[C@@H]1Cn1cc(C2(O)CCCC2)nn1 [Ex 1.2.33.]
4600	70	CO[C@@H]1[C@@H](n2cc(-c3ccc(Br)c(F)c3F)nn2)[C@@H](O)[C@@H](CO)O[C@@H]1Cn1cc(C2(O)CCOCC2)nn1 [Ex 4.2.35.]
3540	70	CO[C@@H]1[C@@H](n2cc(-c3ccc(Cl)c(F)c3F)nn2)[C@@H](O)[C@@H](CO)O[C@@H]1Cc1cn([C@@H]2COC[C@H]2F)nn1 (single isomer, unassigned) [Example 2.1.74.D, (2R,3R,4S,5R,6R)-4-(4-(4-chloro-2,3-difluorophenyl)-1H-1,2,3-triazol-1-yl)-6-((1-((3R*,4S*)-4-fluorotetrahydrofuran-3-yl)-1H-1,2,3-triazol-4-yl)methyl)-2-(hydroxymethyl)-5-methoxytetrahydro-2H-pyran-3-ol]
2460	70	CO[C@@H]1[C@@H](n2cc(-c3ccc(Cl)c(F)c3F)nn2)[C@@H](O)[C@@H](CO)O[C@@H]1Cn1cc(C2(C(F)(F)F)CC2)nn1 [Ex 2.2.54.]
2450	30	CO[C@@H]1[C@@H](n2cc(-c3ccc(Br)c(F)c3F)nn2)[C@@H](O)[C@@H](CO)O[C@@H]1Cc1cn([C@@H]2CC[C@@H]2F)nn1 (relative stereo) [Example 4.1.88.AB, (2R,3R,4S,5R,6R)-4-(4-(4-bromo-2,3-difluorophenyl)-1H-1,2,3-triazol-1-yl)-6-((1-((1R*,2S*)-2-fluorocyclobutyl)-1H-1,2,3-triazol-4-yl)methyl)-2-(hydroxymethyl)-5-methoxytetrahydro-2H-pyran-3-ol]
2260	50	CCC1(c2cn(C[C@H]3O[C@H](CO)[C@H](O)[C@H](n4cc(-c5ccc(Br)c(F)c5F)nn4)[C@H]3OC)nn2)COC1 [Ex 4.2.38.]
1710	50	CO[C@@H]1[C@@H](n2cc(-c3ccc(Cl)c(F)c3F)nn2)[C@@H](O)[C@@H](CO)O[C@@H]1Cc1cn(C2(C)CC(F)(F)C2)nn1 [Ex 2.1.15.]
1020	50	CO[C@@H]1[C@@H](n2cc(-c3ccc(Br)c(F)c3F)nn2)[C@@H](O)[C@@H](CO)O[C@@H]1Cc1cn(C(C)(C)C(F)F)nn1 [Ex 4.1.28.]
960	30	CO[C@@H]1[C@@H](n2cc(-c3ccc(Br)c(F)c3F)nn2)[C@@H](O)[C@@H](CO)O[C@@H]1Cc1cn(C2(C(F)F)CCC2)nn1 [Ex 4.1.43.]
720	440	CO[C@@H]1[C@@H](n2cc(-c3ccc(F)c(F)c3F)nn2)[C@@H](O)[C@@H](CO)O[C@@H]1Cn1cc(C(C)(C)O)nn1 [Ex 3.2.34.]
650	100	CO[C@@H]1[C@@H](n2cc(-c3ccc(F)c(F)c3F)nn2)[C@@H](O)[C@@H](CO)O[C@@H]1Cn1cc(C2(CO)CC2)nn1 [Ex 3.2.4.]
360	40	CO[C@@H]1[C@@H](n2cc(-c3ccc(Cl)c(F)c3F)nn2)[C@@H](O)[C@@H](CO)O[C@@H]1Cc1cn(C2(C(F)F)CCOC2)nn1 (single isomer, unassigned) [Example 2.1.78.A]
